Experimental data from patent US20110257176A1, “NITROGEN HETEROCYCLE DERIVATIVES AS PROTEASOME MODULATORS” (INSTITUT NATIONAL DE LA SANTE ET DE LA RECHERCHE MEDICALE …, priority 2008, published 2011).

What was measured:
[1] = biological target: rabbit reticulocyte 20S proteasome, post-acid (PA) activity (Oryctolagus cuniculus, UniProt G1T235); experiment: 20S proteasome post-acid (PA) activity, Z-LLE-βNA hydrolysis; type: biochemical; set-up: key to Inhibition of post-acid activity (NI): NI: No Inhibition; details: rabbit 20S proteasome; for IC50: pH 8, 37° C.; for Inhibition of post-acid activity (NI): screened at 100 μM and 50 μM
Chain of rabbit reticulocyte 20S proteasome, post-acid (PA) activity (G1T235 entry or part of it): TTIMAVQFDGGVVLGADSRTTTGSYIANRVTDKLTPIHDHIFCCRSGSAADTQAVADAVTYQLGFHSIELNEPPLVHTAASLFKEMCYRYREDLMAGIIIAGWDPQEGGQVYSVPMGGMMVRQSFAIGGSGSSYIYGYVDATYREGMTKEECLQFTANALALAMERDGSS
Method: (§1) Rabbit erythrocyte 20S proteasome was obtained from Boston Biochem, Cambridge, USA. The fluorogenic substrates Suc-LLVY-AMC, Boc-LRR-AMC and Z-LLE-βNA used to measure the proteasome activities CT-L, T-L and PA respectively were purchased from Bachem (France). Other reagents and solvents were purchased from commercial sources. Fluorescence was measured using a BMG Fluostar microplate reader.
(§2) Compounds 1-23 were tested for their potential to inhibit the CT-L, T-L and PA activities of the rabbit reticulocyte 20S proteasome. Enzyme activities were determined by monitoring the hydrolysis of the appropriate fluorogenic substrate (λexc=360, λem=465 nm for AMC substrates, and λexc=340, λem=405 nm for the βNA substrate) for 1 h at 37° C.
(§3) In the in vitro screening, each compound was tested in duplicate against the three activities, at 100 μM and 50 μM in the corresponding buffer. The buffer were (pH 8): 50 mM Tris, 150 mM NaCl, 10% (v/v) glycerol, 0.025% (w/v) SDS, and 3% (v/v) DMSO (CT-L and PA activities); 50 mM Tris, 150 mM NaCl, 10% (v/v) glycerol, and 3% (v/v) DMSO (T-L activity).
(§4) The inhibitory activity of compounds is expressed as IC50, which corresponds to the concentration of proteasome inhibitor leading to a loss of activity of 50%. The values of IC50 were calculated by fitting the experimental data to equation 1: % Inhibition=100×(1−Vi/V0)=100 [I]0/(IC50+[I]0), or equation 2: % Inhibition=100 [I]0^nH/(IC50^nH+[I]0^nH), where Vi is the initial rate in the presence of the inhibitor, V0 is the initial rate in the absence of the inhibitor, [I]0 is the inhibitor concentration, nH is the Hill number (FIG. 1).

[2] = biological target: T1, rabbit reticulocyte 20S proteasome, chymotrypsin-like (CT-L) activity (UniProt G1T4Q9); experiment: 20S proteasome chymotrypsin-like (CT-L) activity, Suc-LLVY-AMC hydrolysis; type: biochemical; details: rabbit 20S proteasome, pH 8, 37° C.
T1 construct: IC50 on chymotrypsin-like activity; other: rabbit 20S proteasome, pH 8, 37° C; Rabbit erythrocyte 20S proteasome was obtained from Boston Biochem, Cambridge, USA
Method: as §1, §2, §3, §4

[3] = test system: rabbit reticulocyte 20S proteasome, trypsin-like (T-L) activity; experiment: 20S proteasome trypsin-like (T-L) activity, Boc-LRR-AMC hydrolysis; type: biochemical; set-up: key to Inhibition of trypsin-like activity (NI): NI: No Inhibition; details: rabbit 20S proteasome; for Inhibition of trypsin-like activity (NI): screened at 100 μM and 50 μM
Method: as §1, §2, §3, §4

[4] = biological target: T2, human erythrocyte 20S proteasome, chymotrypsin-like (CT-L) activity (Homo sapiens, UniProt P28074); experiment: 20S proteasome chymotrypsin-like (CT-L) activity, Suc-LLVY-AMC hydrolysis; type: biochemical; details: for IC50: pH 7.5
T2 construct: three activities of human erythrocyte 20S proteasome; from tissue; host or cells: human erythrocytes
Method: as §1, §4
(§5) Compounds 24, 25 and 31-35 were tested in duplicate against three activities of human erythrocyte 20S proteasome at 100 and 50 μM in the appropriate buffer (pH 7.5): 20 mM Tris HCl, 10% (v/v) glycerol, 0.01% (w/v) SDS and 2% DMSO (CT-L and PA activities); 20 mM Tris HCl, 10% (v/v) glycerol, and 2% DMSO (T-L activity). The inhibitory activities were analyzed as described above for compounds 1-23.

[5] = biological target: T3, human erythrocyte 20S proteasome, trypsin-like (T-L) activity (Homo sapiens, UniProt Q99436); experiment: 20S proteasome trypsin-like (T-L) activity, Boc-LRR-AMC hydrolysis; type: biochemical; set-up: key to Inhibition of trypsin-like activity (NI): NI: No Inhibition; details: for IC50: pH 7.5; for inhibition at 100 µM: 100 μM inhibitor, read-out: % inhibition (inhibitor concentration) on trypsin-like activity
T3 construct: three activities of human erythrocyte 20S proteasome; from tissue; host or cells: human erythrocytes
Method: as §1, §4, §5

[6] = biological target: T4, human erythrocyte 20S proteasome, post-acid (PA) activity (Homo sapiens, UniProt P28072); experiment: 20S proteasome post-acid (PA) activity, Z-LLE-βNA hydrolysis; type: biochemical; set-up: key: NI: No Inhibition; details: screened at 100 and 50 μM
T4 construct: three activities of human erythrocyte 20S proteasome; from tissue; host or cells: human erythrocytes
Method: as §1, §4, §5

[7] = biological target: T5, rabbit reticulocyte 20S proteasome, chymotrypsin-like (CT-L) activity (Oryctolagus cuniculus, UniProt G1T4Q9); experiment: 20S proteasome chymotrypsin-like (CT-L) activity, Suc-LLVY-AMC hydrolysis; type: biochemical; details: rabbit 20S proteasome, pH 8, 37° C.
T5 construct: IC50 on chymotrypsin-like activity; other: rabbit 20S proteasome, pH 8, 37° C; Rabbit erythrocyte 20S proteasome was obtained from Boston Biochem, Cambridge, USA
T5 sequence (G1T4Q9 1-263): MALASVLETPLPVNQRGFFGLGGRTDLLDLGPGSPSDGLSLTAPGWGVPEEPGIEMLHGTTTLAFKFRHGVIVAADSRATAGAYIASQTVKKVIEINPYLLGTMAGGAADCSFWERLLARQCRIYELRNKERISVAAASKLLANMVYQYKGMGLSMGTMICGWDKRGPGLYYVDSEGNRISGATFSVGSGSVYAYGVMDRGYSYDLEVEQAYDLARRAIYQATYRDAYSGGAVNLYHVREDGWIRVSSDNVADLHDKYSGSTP
Method: as §1, §2, §3, §4

human calpain-I = biological target: T6, human calpain-I (Homo sapiens, UniProt P07384); experiment: Selectivity: inhibition of calpain-I; type: biochemical; details: 100 μM compound
T6 sequence (P07384 1-714): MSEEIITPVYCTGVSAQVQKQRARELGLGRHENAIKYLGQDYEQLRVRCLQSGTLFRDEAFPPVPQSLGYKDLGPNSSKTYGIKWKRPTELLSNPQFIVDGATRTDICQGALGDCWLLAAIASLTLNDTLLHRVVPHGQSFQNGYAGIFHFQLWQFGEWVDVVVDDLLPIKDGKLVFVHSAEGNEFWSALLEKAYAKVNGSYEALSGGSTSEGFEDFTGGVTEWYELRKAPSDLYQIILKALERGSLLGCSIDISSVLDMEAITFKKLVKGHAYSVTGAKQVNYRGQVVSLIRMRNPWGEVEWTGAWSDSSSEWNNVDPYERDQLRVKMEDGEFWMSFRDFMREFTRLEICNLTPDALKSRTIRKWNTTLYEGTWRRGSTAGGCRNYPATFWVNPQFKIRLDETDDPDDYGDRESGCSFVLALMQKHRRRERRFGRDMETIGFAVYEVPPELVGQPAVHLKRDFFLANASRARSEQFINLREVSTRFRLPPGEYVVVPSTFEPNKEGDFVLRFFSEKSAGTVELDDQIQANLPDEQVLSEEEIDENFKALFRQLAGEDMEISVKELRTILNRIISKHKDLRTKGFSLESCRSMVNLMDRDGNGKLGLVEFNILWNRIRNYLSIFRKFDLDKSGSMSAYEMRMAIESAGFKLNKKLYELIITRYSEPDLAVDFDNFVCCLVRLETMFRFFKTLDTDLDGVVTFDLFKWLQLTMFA
T6 sequence (P04632 1-268 partner): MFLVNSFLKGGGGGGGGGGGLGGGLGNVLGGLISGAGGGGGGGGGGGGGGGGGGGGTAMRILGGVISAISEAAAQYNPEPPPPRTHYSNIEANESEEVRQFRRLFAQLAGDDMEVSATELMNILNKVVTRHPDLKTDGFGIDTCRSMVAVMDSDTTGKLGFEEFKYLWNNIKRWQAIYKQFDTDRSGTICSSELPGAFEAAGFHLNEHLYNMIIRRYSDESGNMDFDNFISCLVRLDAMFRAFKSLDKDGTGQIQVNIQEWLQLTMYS

| SMILES | IC50 [2] [µM] | Inhibition of trypsin-like activity (NI) [3] | Inhibition of post-acid activity (NI) [1] | also measured |
| --- | --- | --- | --- | --- |
| CC(C)c1noc(CN(C(=O)COc2ccc(Br)cc2)C(C)C)n1 [Compound 28] | 12.3 ± 0.3 | NI | – | IC50 [1]: 45 ± 1 µM |
| CC(C)N(Cc1nc(-c2ccc(Oc3ccccc3)cc2)no1)C(=O)COc1ccc(Br)cc1 [Compound 24] | – | – | – | melting point: 87 °C; IC50 [4]: 0.61 ± 0.03 µM; IC50 [5]: 10.8 ± 0.4 µM; Inhibition of post-acid activity (NI) [6]: NI |
| CCOc1ccc(C(=O)N(Cc2nc(-c3ccc(OC)cc3)no2)C(C)C)cc1 [Compound 20] | – | – | NI | IC50 [7]: ~18 µM; Activation × of trypsin-like activity ([3]; 50 μM compound, fold activation): Activation × 3.4 (50 μM) |
| CC(C)N(Cc1nc(CN2CCCCC2)no1)C(=O)COc1ccc(Br)cc1 [Compound 35] | – | – | – | melting point: 144 °C; IC50 [4]: 37.3 ± 4.2 µM; inhibition at 100 µM [5]: 47%; Inhibition of post-acid activity (NI) [6]: NI |
| CC(C)N(Cc1nc(C(C)(C)C)no1)C(=O)COc1ccc(Br)cc1 [Compound 29] | 81 ± 4 | NI | – | IC50 [1]: 28 ± 3 µM |
| CC(C)N(Cc1nc(CN2CCOCC2)no1)C(=O)COc1ccc(Br)cc1 [Compound 33] | – | – | – | melting point: 110 °C; IC50 [4]: 78.6 ± 1.6 µM; inhibition at 100 µM [5]: 42%; Inhibition of post-acid activity (NI) [6]: NI |
| CCN(CC)Cc1noc(CN(C(=O)COc2ccc(Br)cc2)C(C)C)n1 [Compound 34] | – | – | – | melting point: 168 °C; IC50 [4]: 30.9 ± 2.3 µM; inhibition at 100 µM [5]: 28%; Inhibition of post-acid activity (NI) [6]: NI |
| COc1ccc(-c2noc(CN(C(=O)COc3ccc(Br)cc3)C(C)C)n2)cc1 [Compound 12] | 0.1 ± 0.01 | NI | NI | – |
| Cc1noc(CN(C(=O)COc2ccc(Br)cc2)C(C)C)n1 [Compound 27] | 12.3 ± 0.3 | NI | – | IC50 [1]: 76 ± 2 µM |
| Cc1cccc(-c2noc(CN(C(=O)COc3ccc(Br)cc3)C(C)C)n2)c1 [Compound 4] | 0.51 ± 0.07 | – | NI | % inhibition (inhibitor concentration) on trypsin-like activity ([3]; 50 μM inhibitor): 7.3% |
| COc1ccc(-c2noc(CN(C(=O)COc3ccccc3)C(C)C)n2)cc1 [Compound 9] | 3.96 ± 0.75 | NI | NI | inhibition at 100 µM (human calpain-I): ≤ 30% |
| C=CCN(Cc1nc(-c2ccc(OC)cc2)no1)C(=O)COc1ccccc1 [Compound 8] | 1.66 ± 0.12 | NI | NI | inhibition at 100 µM (human calpain-I): ≤ 30% |
| COc1ccc(OCC(=O)N(Cc2nc(-c3cccc(C)c3)no2)C(C)C)cc1 [Compound 5] | 0.91 ± 0.12 | NI | NI | – |
| COc1ccc(OCC(=O)N(Cc2nc(-c3ccccc3)no2)C(C)C)cc1 [Compound 6] | 1.02 ± 0.16 | – | NI | Inhibition of human calpain-I (in words) (human calpain-I): no inhibition |
| COc1ccc(OCC(=O)N(Cc2nc(-c3ccc(C)cc3)no2)C(C)C)cc1 [Compound 16] | 2.49 ± 0.91 | NI | NI | Inhibition of human calpain-I (in words) (human calpain-I): no inhibition |
| Cc1cccc(OCC(=O)N(Cc2nc(-c3cccc(C)c3)no2)C(C)C)c1 [Compound 15] | ~27 | NI | NI | – |
| C=CCN(Cc1nc(-c2ccccc2)no1)C(=O)COc1ccc(C)cc1 [Compound 18] | 0.33 ± 0.03 | NI | NI | – |
| COc1ccc(-c2noc(CN(C(=O)COc3ccc(Br)cc3)C(C)C)n2)cc1OC [Compound 25] | – | – | – | melting point: 135 °C; IC50 [4]: 0.037 ± 0.003 µM; Inhibition of trypsin-like activity (NI) ([5]; screened at 100 and 50 μM): NI; Inhibition of post-acid activity (NI) [6]: NI |
| CC(C)N(Cc1nc(-c2cccc3ccccc23)no1)C(=O)COc1ccc(Br)cc1 [Compound 32] | – | – | – | melting point: 114 °C; inhibition at 100 µM ([4]; 100 μM inhibitor, read-out: % inhibition (inhibitor concentration) on chymotrypsin-like activity): 30%; IC50 [5]: 29.1 ± 0.9 µM; Inhibition of post-acid activity (NI) [6]: NI |
| COc1ccc(-c2noc(CN(C(=O)C(C)Oc3ccccc3)C(C)C)n2)cc1 (stereo not drawn) [Compound 14] | 8.05 ± 0.83 | NI | NI | – |
| CCc1ccc(OCC(=O)N(Cc2nc(-c3ccc(OC)cc3)no2)C(C)C)cc1 [Compound 7] | 0.09 ± 0.006 | NI | NI | – |
| COc1ccc(-c2noc(CN(C(=O)COc3ccc(C)cc3)C(C)C)n2)cc1 [Compound 10] | 0.71 ± 0.04 | NI | NI | – |
| CCc1ccc(OCC(=O)N(Cc2nc(-c3cccc(C)c3)no2)C(C)C)cc1 [Compound 3] | 0.17 ± 0.01 | NI | NI | – |
| COc1ccc(C(=O)NCCc2nnc(SCC(=O)Nc3cc(C)ccc3OC)n2C)cc1 [Compound 22] | – | – | – | inhibition at 100 µM ([1]; 100 μM inhibitor, read-out: % inhibition (inhibitor concentration) on post-acid activity): 16%; IC50 [7]: 80 µM; % inhibition (inhibitor concentration) on trypsin-like activity ([3]; 100 μM inhibitor): 22% (100 μM) |
| COc1ccc(Cl)cc1NC(=O)CSc1nnc(C(CO)NC(=O)c2ccccc2)n1C (stereo not drawn) [Compound 23] | – | – | NI | IC50 [7]: 85 µM; % inhibition (inhibitor concentration) on trypsin-like activity ([3]; 100 μM inhibitor): 50% (100 μM) |
